This passage reports Ki and IC50 results from patent US8299267B2, “(3-hydroxy-4-amino-butan-2-yl) -3- (2-thiazol-2-yl-pyrrolidine-1-carbonyl) benzamide derivatives and related compounds as beta-secretase inhibitors for treating” (CoMentis, Inc., priority 2007, dated 2012).

Read-outs that look alike come from different tables or passages of the source.

One may read the IC50 as the concentration needed to halve the response being measured.

One experiment has as its target cathepsin D (Homo sapiens, UniProt P07339). As to the kind of experiment: Inhibition of cathepsin D activity (substrate peptide ELDLAVEFWHDR, MALDI-TOF). The format is biochemical. How it is done: [The procedure below names another target; the source lists this target under the same test.] (§1) A substrate peptide NH3-ELDLAVEFWHDR-CO2 (SEQ ID NO.: 1) was dissolved at 2 mg/mL in 10% glacial acetic acid and diluted into 0.009M NaOH to obtain μM concentration at pH 4.1. After equilibration at 37 degrees C., the reactions were initiated by the addition of an aliquot of memapsin 2. Aliquots were removed at time intervals, and combined with an equal volume of MALDI-TOF matrix (α-hydroxycinnamic acid in acetone, 20 mg/mL) and immediately spotted in duplicate onto a stainless-steel MALDI sample plate. MALDI-TOF mass spectrometry was performed on a PE Biosystems Voyager DE. The instrument was operated at 25,000 accelerating volts in positive mode with a 150 ns delay. Ions with a mass-to-charge ratio (m/z) were detected in the range of 650-2000 atomic mass units. Data were analyzed by the Voyager Data Explorer module to obtain ion intensity data for mass species of substrates and corresponding products in a given mixture. Relative product formation was calculated as the ratio of signal intensity of the product to the sum of signal intensities of both product and the corresponding substrate. Relative product formed per unit time was obtained from non-linear regression analysis of the data representing the initial 15% formation of product using the model: 1−e^−kT, where k was the relative hydrolytic rate constant and T was time in seconds. Initial rates were expressed relative to uninhibited controls and fit to a tight-binding model of competitive inhibition as above.

The target of the next experiment is memapsin 2 (Homo sapiens, UniProt P56817). Description: Inhibition of memapsin 2 beta-secretase activity toward fluorogenic substrate FS-2. The format is biochemical. The gist of the method:
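Memapsin 2 was preincubated with compound 20 min at pH 4, 37 °C, then reacted with fluorogenic substrate FS-2 (MCA-SEVNLDAEFK-DNP), an APP-derived Swedish-variant peptide. Inhibition was followed kinetically by fluorescence.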

For experiment [1], the system named is Aβ production in Chinese hamster ovary cells that over-express human APP695 with the London and Swedish mutations. Description: Cellular Aβ IC50 determination (Aβ40 sandwich ELISA). In kind it is cell-based. To be noted: Cricetulus griseus. The method, boiled down: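 APP695 (London/Swedish)-overexpressing CHO cells were treated 48 h after seeding with serial dilutions from near 4 μM top concentration (0.4% DMSO) for 24 h at 37 °C. Secreted Aβ40 was quantified by sandwich ELISA relative to controls and fit to a 4-parameter IC50 model.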
Background: In an ELISA, binding on a coated surface is turned into a signal by an enzyme label.

The next experiment has as its target T1, memapsin 1 (Homo sapiens, UniProt Q9Y5Z0).
T1 sequence (Q9Y5Z0 63-518): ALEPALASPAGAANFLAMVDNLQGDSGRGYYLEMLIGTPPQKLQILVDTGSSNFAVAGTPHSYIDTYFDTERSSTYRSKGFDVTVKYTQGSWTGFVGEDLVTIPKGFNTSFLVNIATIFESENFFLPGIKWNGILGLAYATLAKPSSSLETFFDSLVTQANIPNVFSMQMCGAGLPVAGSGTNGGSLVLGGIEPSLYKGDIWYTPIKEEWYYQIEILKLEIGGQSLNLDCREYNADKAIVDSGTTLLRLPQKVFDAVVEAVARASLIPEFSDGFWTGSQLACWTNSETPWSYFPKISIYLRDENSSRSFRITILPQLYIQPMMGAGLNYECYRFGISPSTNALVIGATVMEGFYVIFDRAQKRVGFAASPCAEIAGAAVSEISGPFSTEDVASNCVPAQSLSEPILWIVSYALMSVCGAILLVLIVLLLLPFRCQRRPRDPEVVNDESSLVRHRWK
Description: Inhibition of memapsin 1 beta-secretase activity (substrate peptide ELDLAVEFWHDR, MALDI-TOF). In kind it is biochemical. How it is done: [The procedure below names another target; the source lists this target under the same test.] as §1

Where [2] appears, read: cathepsin D, pH 4.1, 37 degrees C., read-out: CDKi.
Where [3] appears, read: memapsin 2, pH 4, 37° C., 20 minutes pre-incubation, substrate FS-2, read-out: M2Ki.
[4] abbreviates: Aβ40 in CHO cells over-expressing human APP695, 24 h incubation.
The mark [5] stands for this setting: memapsin 1, pH 4.1, 37 degrees C., read-out: M1Ki.

memapsin 2, sequence (P56817 46-501): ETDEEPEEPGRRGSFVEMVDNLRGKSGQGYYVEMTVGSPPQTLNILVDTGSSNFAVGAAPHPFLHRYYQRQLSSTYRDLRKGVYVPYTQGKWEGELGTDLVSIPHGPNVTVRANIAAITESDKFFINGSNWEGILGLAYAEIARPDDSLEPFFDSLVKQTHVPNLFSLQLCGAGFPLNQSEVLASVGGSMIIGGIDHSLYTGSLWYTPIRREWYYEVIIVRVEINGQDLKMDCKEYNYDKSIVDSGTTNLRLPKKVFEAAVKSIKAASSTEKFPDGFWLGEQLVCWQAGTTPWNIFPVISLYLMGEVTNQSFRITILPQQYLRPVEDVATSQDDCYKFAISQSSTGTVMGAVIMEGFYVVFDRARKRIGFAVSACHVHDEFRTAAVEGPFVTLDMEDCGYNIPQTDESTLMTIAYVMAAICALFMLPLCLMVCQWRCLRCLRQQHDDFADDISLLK
cathepsin D, sequence (P07339 65-412, species assumed): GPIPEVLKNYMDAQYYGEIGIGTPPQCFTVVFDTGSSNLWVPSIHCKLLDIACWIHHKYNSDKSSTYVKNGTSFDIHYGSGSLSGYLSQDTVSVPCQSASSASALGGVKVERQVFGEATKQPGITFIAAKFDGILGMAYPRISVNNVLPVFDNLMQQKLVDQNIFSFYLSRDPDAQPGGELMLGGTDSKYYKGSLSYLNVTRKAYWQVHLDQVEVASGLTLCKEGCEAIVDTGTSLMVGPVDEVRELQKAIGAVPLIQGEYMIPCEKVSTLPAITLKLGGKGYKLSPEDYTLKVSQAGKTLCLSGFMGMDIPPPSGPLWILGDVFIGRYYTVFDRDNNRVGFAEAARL

On to `Cc1cc(C(=O)N[C@@H](Cc2ccccc2)[C@H](O)CNCc2cccc(C(C)(C)C)c2)cc(C(=O)N2CCC[C@@H]2c2nc(C)cs2)c1` [Compound 14, N-((2S,3R)-4-(3-tert-butylbenzylamino)-3-hydroxy-1-phenylbutan-2-yl)-3-methyl-5-((R)-2-(4-methylthiazol-2-yl)pyrrolidine-1-carbonyl)benzamide], for which the values for the Ki on cathepsin D (setting [2]), on memapsin 2 (setting [3]) and on memapsin 1 (setting [5]) were under 300 nM, under 100 nM and under 300 nM, respectively. The compound further registered an IC50 in experiment [1] (setting [4]) of under 300 nM.

As for `Cc1csc([C@H]2CCCN2C(=O)c2cccc(C(=O)N[C@@H](Cc3ccccc3)[C@H](O)CNCc3cncc(C(C)C)c3)c2)n1` [Compound 2, N-((2S,3R)-3-hydroxy-4-((5-isopropylpyridin-3-yl)methylamino)-1-phenylbutan-2-yl)-3-((R)-2-(4-methylthiazol-2-yl)pyrrolidine-1-carbonyl)benzamide], the Ki at cathepsin D (setting [2]) was 301 to 500 nM; on memapsin 2 (setting [3]) it was under 100 nM; at memapsin 1 (setting [5]), under 300 nM. This compound also showed an IC50 in experiment [1] (setting [4]) of under 300 nM.

With `COc1cccc(CNC[C@@H](O)[C@H](Cc2ccccc2)NC(=O)c2cc(C)cc(C(=O)N3CCC[C@@H]3c3nc(C)cs3)c2)c1` [Compound 6, N-((2S,3R)-3-hydroxy-4-(3-methoxybenzylamino)-1-phenylbutan-2-yl)-3-methyl-5-((R)-2-(4-methylthiazol-2-yl)pyrrolidine-1-carbonyl)benzamide], the Ki on cathepsin D (setting [2]) was 301 to 500 nM; on memapsin 2 (setting [3]), under 100 nM; on memapsin 1 (setting [5]), over 501 nM. The compound also returned an IC50 in experiment [1] (setting [4]) of under 300 nM.

Take `Cc1cc(C(=O)N[C@@H](Cc2ccccc2)[C@H](O)CNCc2cccc(C(F)(F)F)c2)cc(C(=O)N2CCC[C@@H]2c2nc(C)cs2)c1` [Compound 12, N-((2S,3R)-3-hydroxy-1-phenyl-4-(3-(trifluoromethyl)benzylamino)butan-2-yl)-3-methyl-5-((R)-2-(4-methylthiazol-2-yl)pyrrolidine-1-carbonyl)benzamide]: the Ki at cathepsin D (setting [2]) was over 501 nM; on memapsin 2 (setting [3]), under 100 nM; at memapsin 1 (setting [5]), under 300 nM. This compound returned an IC50 in experiment [1] (setting [4]) of under 300 nM.

As for `COc1cccc(CNC[C@@H](O)[C@H](Cc2ccccc2)NC(=O)c2cccc(C(=O)N3COC[C@@H]3c3nc(C)cs3)c2)c1` [Compound 15, N-((2S,3R)-3-hydroxy-4-(3-methoxybenzylamino)-1-phenylbutan-2-yl)-3-((R)-4-(4-methylthiazol-2-yl)oxazolidine-3-carbonyl)benzamide], the Ki is under 300 nM on cathepsin D (setting [2]), under 100 nM at memapsin 2 (setting [3]) and 301 to 500 nM on memapsin 1 (setting [5]). The compound also registered an IC50 in experiment [1] (setting [4]) of under 300 nM.

For `Cc1csc([C@H]2CCCN2C(=O)c2cccc(C(=O)N[C@@H](Cc3ccccc3)[C@H](O)CNCc3cccc(C(F)(F)F)c3)c2)n1` [N-((2S,3R)-3-hydroxy-1-phenyl-4-(3-(trifluoromethyl)benzylamino)butan-2-yl)-3-((R)-2-(4-methylthiazol-2-yl)pyrrolidine-1-carbonyl)benzamide], the values for the Ki at cathepsin D (read-out: CathD Ki), at memapsin 2 (read-out: M2 Ki) and at memapsin 1 (read-out: M1 Ki) were 1080 nM, 7.09 nM and 826 nM, respectively. Moreover, the IC50 in experiment [1] (cellular Aβ) amounted to 23 nM.
